Experimental data as given in article PMC4621012 (Molecules, 2014).

Molecular target: GRK5 (Bos taurus, UniProt P43249)
Assay: DSF (ThermoFluor, ANS) melting point shift, dose response, reconfirmed by replating; no Kd
Type: binding

GRK5, sequence (P43249 whole entry): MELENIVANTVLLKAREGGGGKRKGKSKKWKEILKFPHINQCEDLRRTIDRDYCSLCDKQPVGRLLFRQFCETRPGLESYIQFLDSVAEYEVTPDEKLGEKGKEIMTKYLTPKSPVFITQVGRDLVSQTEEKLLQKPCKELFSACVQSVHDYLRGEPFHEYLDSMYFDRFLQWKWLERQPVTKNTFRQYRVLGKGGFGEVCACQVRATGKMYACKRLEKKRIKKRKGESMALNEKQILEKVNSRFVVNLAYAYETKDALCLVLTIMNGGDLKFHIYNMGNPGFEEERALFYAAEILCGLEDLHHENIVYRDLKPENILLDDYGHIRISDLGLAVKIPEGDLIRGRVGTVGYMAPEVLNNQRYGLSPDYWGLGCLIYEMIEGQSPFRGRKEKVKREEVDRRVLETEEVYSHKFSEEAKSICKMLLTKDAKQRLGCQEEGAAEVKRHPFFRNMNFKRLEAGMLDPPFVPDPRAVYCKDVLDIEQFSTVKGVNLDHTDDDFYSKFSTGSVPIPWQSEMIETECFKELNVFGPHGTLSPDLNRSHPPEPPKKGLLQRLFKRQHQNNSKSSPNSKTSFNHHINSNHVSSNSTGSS

With `CN[C@@H]1C[C@H]2O[C@@](C)([C@@H]1OC)n1c3ccccc3c3c4c(c5c6ccccc6n2c5c31)C(=O)NC4` [staurosporine] the “DSF (ThermoFluor, ANS) melting point shift, dose response, reconfirmed by replat” value was “Staurosporine, which served effectively as a positive control, was not analyzed further”.
